# How the values were obtained:
# [1] = tested on: EV 71 strain H (genotype C2); assay: Anti EV 71 activity assay (CPE, Reed & Muench) in Vero cells, strain H; assay type: cell-based, Enterovirus 71; details: for IC50: EV 71 strain H (C2 genotype), Vero cells, 100 TCID50, CPE, average ± SD, n=3; for SI H: selectivity index TC50/IC50, strain H, "-" stands for no antiviral selectivity
# Description: (§1) The EV 71 was divided into three genotypes A, B and C based on nucleotide sequence comparisons, and genotypes B and C were subdivided into B1-B5 and C1-C5 [6, 10]. Genotype C is the most common genotype found in mainland China, especially the C4 subgenotype. Consequently, the intermediate compounds 1a, 1c and 1e, and the final products 2a–c, 3a–g, and 5a–f were evaluated for their anti-EV 71 activity in Vero cells against genotypes C4 (strains SZ-98 and JS-52-3), C2 (strain H) and A (strain BrCr). […] The IC50 values were calculated by the Reed and Muench method, and the cytotoxicity was monitored by the CPE method.
# (§2) Vero cells were purchased from the American Type Culture Collection and cultured in Minimum Essential Medium (MEM) supplemented with 10% Fetal Bovine Serum (FBS) and antibiotics (100 U/mL penicillin G, 100 μg/mL streptomycin). Enterovirus 71 (EV 71) strain SZ-98 was kindly provided by Dr. Qi Jin, Institute of Pathogen Biology, Chinese Academy of Medical Science and Peking Union Medical School. Enterovirus 71 (EV 71) strain BrCr (VR-1775) was purchased from the American Type Culture Collection. Enterovirus 71 (EV 71) strain JS-52-3 was kindly provided by Dr. Xiang-zhong Ye, Beijing Wantai Biological Pharmacy Enterprise Co., Ltd. All Enterovirus 71 strains were propagated in Vero cells.
# (§3) All compounds were dissolved in DMSO at 20 mg/mL as a stock solution and further diluted in culture medium prior to use. The initial concentration in all cytotoxicity assay was 200 µg/mL, and inhibition assay for anti-EV71 experiments was from maximum non-toxic concentration, and proceeded serially 3-fold dilution with culture medium. All cytotoxicity and activity assay for each compound was repeated for three times, and the data was indicated as average ± SD.
# (§4) Confluent Vero cells grown in 96-well microplates were infected respectively with 100 median tissue culture infective dose (TCID50) EV 71. After 1 h adsorption at 37 °C, the monolayers were washed by PBS and incubated at 37 °C in the maintenance medium with or without different concentrations of test compounds.
# [2] = tested on: EV 71 strain SZ-98 (genotype C4); assay: Anti EV 71 activity assay (CPE, Reed & Muench) in Vero cells, strain SZ-98; assay type: cell-based, Enterovirus 71; details: for IC50: EV 71 strain SZ-98, Vero cells, 100 TCID50, CPE, average ± SD, n=3; for SI SZ-98: selectivity index TC50/IC50, strain SZ-98, "-" stands for no antiviral selectivity
# Description: as §1, §2, §3, §4
# Vero cells = assay: Cytotoxicity determination in Vero cells monitored by cytopathic effect (CPE); assay type: cell-based; details: 48 h, Reed & Muench, concentration that inhibits 50% cellular growth, average ± SD, n=3
# Description: as §2, with “Enterovirus 71 (EV 71) strain BrCr (VR-1775) was purchased from the American Type Culture Collection.” left out
# as §3
# The cytotoxicity of compounds in the presence of Vero cells was monitored by cytopathic effect (CPE). Vero cells (2.5 × 10^4/well) were plated into a 96-well plate. A total of 24 h later, the monolayer cells were incubated in the presence of various concentrations of test compounds. […] The median toxic concentration (TC50) was calculated by Reed & Muench analyses.
# [3] = tested on: EV 71 strain JS-52-3 (genotype C4); assay: Anti EV 71 activity assay (CPE, Reed & Muench) in Vero cells, strain JS-52-3; assay type: cell-based, Enterovirus 71; details: for IC50: EV 71 strain JS-52-3, Vero cells, 100 TCID50, CPE, average ± SD, n=3; for SI JS-52-3: selectivity index TC50/IC50, strain JS-52-3, "-" stands for no antiviral selectivity
# Description: as §1, §2, §3, §4
# [4] = tested on: EV 71 strain BrCr (genotype A); assay: Anti EV 71 activity assay (CPE, Reed & Muench) in Vero cells, strain BrCr; assay type: cell-based, Enterovirus 71; details: for IC50: Enterovirus A, Vero, EV 71 strain BrCr, Vero cells, 100 TCID50, CPE, average ± SD, n=3; for SI BrCr: selectivity index TC50/IC50, strain BrCr, "-" stands for no antiviral selectivity
# Description: as §1, §2, §3, §4
# [5] = tested on: EV 71 strains SZ-98, JS-52-3, H, BrCr; assay: Anti EV 71 activity assay in Vero cells, summary over the four strains tested; assay type: cell-based, Enterovirus 71; details: TC50/IC50, range over the EV 71 strains tested
# Description: as §1, §2, §3, §4
Structure (SMILES),"IC50 ([1]; Enterovirus A, Vero) [µM]","IC50 ([2]; Enterovirus A, Vero) [µM]","IC50 ([3]; Enterovirus A, Vero) [µM]",IC50 [4] [µM],melting point [°C],IC50 [1] [µM],IC50 [3] [µM],SI H [1],TC50 (Vero cells) [µM],SI JS-52-3 [3],SI BrCr [4],SI SZ-98 [2],selectivity index (SI) values (range over strains) [5],IC50 [2] [µM]
COc1ccc(C(=O)Nc2ccccc2)cc1N [Compound 1a],190 ± 14,350 ± 24,160 ± 7.9,160 ± 12,,,,4.3,>820,5.2,5.2,,,
"COc1ccc(C(=O)Nc2ccc(Cl)cc2)cc1N [Compound 1c, 3-Amino-N-(4-chlorophenyl)-4-methoxybenzamide]",34 ± 3.6,~15,46 ± 5.7,56 ± 4.2,152 to 154,,,16,520 ± 29,12,10,36,10–36,
"COc1ccc(C(=O)Nc2ccc(Br)cc2)cc1N [Compound 1e, 3-Amino-N-(4-bromophenyl)-4-methoxybenzamide]",5.7 ± 0.8,12 ± 1.1,9.8 ± 0.4,9.1 ± 1.4,190 to 192,,,110,620 ± 0.0,64,68,51,51–110,
COc1ccc(C(=O)Nc2ccccc2)cc1NC(=O)C(C)F (stereo not drawn) [Compound 2a],18 ± 1.2,> 630,160 ± 5.7,> 630,,,,>35,,>3.9,,,,
"COc1cc(C(=O)Nc2ccccc2)ccc1NC(=O)C(C)F (stereo not drawn) [Compound 2c, 4-(2-Fluoropropanamido)-3-methoxy-N-phenylbenzamide]",41 ± 2.9,110 ± 12,34 ± 2.8,90 ± 9.5,142 to 143,,,>16,>630,,>7.0,>5.8,,
"CNc1cc(C(=O)Nc2ccccc2)ccc1OC [Compound 3a, 4-Methoxy-3-methylamino-N-phenylbenzamide]",260,> 260,260,180 ± 14,170 to 172,,,3.0,780 ± 0.0,3.0,4.3,,,
"COc1ccc(C(=O)Nc2ccc(Cl)cc2)cc1N(C)C [Compound 3b, N-(4-Chlorophenyl)-3-dimethylamino-4-methoxybenzamide]",31 ± 4.3,73 ± 8.6,42 ± 3.1,50 ± 3.8,160 to 162,,,16,510 ± 38,12,10,7.0,,
"CNc1cc(C(=O)Nc2cc(OC)c(OC)c(OC)c2)ccc1OC [Compound 3c, 4-Methoxy-3-methylamino-N-(3,4,5-trimethoxyphenyl)benzamide]",37 ± 1.2,64,37 ± 1.9,44 ± 1,147 to 148,,,7.5,280 ± 5.9,7.5,6.2,4.3,,
"COc1ccc(C(=O)Nc2cc(OC)c(OC)c(OC)c2)cc1N(C)C [Compound 3d, 3-Dimethylamino-4-methoxy-N-(3,4,5-trimethoxyphenyl)benzamide]",190,320 ± 32,> 560,190,120 to 122,,,>3.0,>560,,>3.0,>1.7,,
"CCCNc1cc(C(=O)Nc2ccccc2)ccc1OC [Compound 3e, 4-Methoxy-N-phenyl-3-(propylamino)benzamide]",~15,> 78,34 ± 4.6,45,121 to 123,20 ± 1.2,,20,410 ± 22,12,9.0,,,
"CCCNc1cc(C(=O)Nc2ccc(Cl)cc2)ccc1OC [Compound 3f, N-(4-Chlorophenyl)-4-methoxy-3-propylaminobenzamide]",> 70,> 70,> 70,> 70,168 to 171,,,,120,,,,,
"COc1ccc(C(=O)Nc2ccc(Cl)cc2)cc1OC(C)=O [Compound 5e, N-(4-Chlorophenyl)-4-methoxy-3-acetoxybenzamide]",22 ± 4.7,~15,32 ± 3.6,32 ± 3.9,177 to 179,,,21,470 ± 22,14,15,37,,13 ± 2.4
"COc1ccc(C(=O)Nc2ccccc2)cc1OC(C)=O [Compound 5f, 4-Methoxy-N-phenyl-3-acetoxybenzamide]",47 ± 6.1,90 ± 11,98 ± 4.7,95 ± 9,153 to 155,,,7.6,360 ± 39,3.7,3.8,4.0,,

# More lines, main results first:
"IC50 ([1]; Enterovirus A, Vero) [µM]","IC50 ([2]; Enterovirus A, Vero) [µM]","IC50 ([3]; Enterovirus A, Vero) [µM]",IC50 [4] [µM],melting point [°C],IC50 [1] [µM],IC50 [3] [µM],Structure (SMILES),SI H [1],TC50 (Vero cells) [µM],SI JS-52-3 [3],SI BrCr [4],SI SZ-98 [2],selectivity index (SI) values (range over strains) [5],IC50 [2] [µM]
96 ± 10,> 75,58 ± 4.9,45 ± 10,,,,CCC(=O)Nc1cc(C(=O)Nc2ccccc2)ccc1OC [Compound 5a],>7.0,>670,>12,,,,
22 ± 2.9,38 ± 2.9,39 ± 1.9,> 67,130 to 132,,,"CCC(=O)Nc1cc(C(=O)Nc2ccc(Cl)cc2)ccc1OC [Compound 5b, N-(4-Chlorophenyl)-4-methoxy-3-propionamidobenzamide]",>27,>600,>16,,> 16,,
~15,~15,~15,34,,8.4 ± 1.2,20 ± 3.1,CCC(=O)Nc1cc(C(=O)Nc2ccc(Br)cc2)ccc1OC [Compound 5c],63,530 ± 0.0,27,16,47,16–63,11 ± 0.8
65,190 ± 12,44 ± 3.7,53 ± 2.4,139 to 141,,,"CCC(=O)Oc1cc(C(=O)N(C)c2ccc(Cl)cc2)ccc1OC [Compound 5d, N-(4-Chlorophenyl)-N-methyl-4-methoxy-3-propionyloxybenzamide]",4.3,280 ± 21,6.2,5.2,1.4,,

# From paper PMC6270001, “Synthesis and Antiviral Activity of N-Phenylbenzamide Derivatives, a Novel Class of Enterovirus 71 Inhibitors” (Molecules, 2013)
